This note sets out measurements from US8063099B2, “Trans-3-aza-bicyclo[3.1.0]hexane derivatives” (Actelion Pharmaceuticals Ltd., priority 2007, dated 2011).

Structures are written as SMILES. Where two headings read alike, the source gives them in different places.

One assay addresses T1, human orexin-1 receptor (Homo sapiens, UniProt O43613).
T1 construct: expressed in transfected cells; host or cells: Chinese hamster ovary (CHO) cells, G418 selection
T1 sequence (O43613 1-425): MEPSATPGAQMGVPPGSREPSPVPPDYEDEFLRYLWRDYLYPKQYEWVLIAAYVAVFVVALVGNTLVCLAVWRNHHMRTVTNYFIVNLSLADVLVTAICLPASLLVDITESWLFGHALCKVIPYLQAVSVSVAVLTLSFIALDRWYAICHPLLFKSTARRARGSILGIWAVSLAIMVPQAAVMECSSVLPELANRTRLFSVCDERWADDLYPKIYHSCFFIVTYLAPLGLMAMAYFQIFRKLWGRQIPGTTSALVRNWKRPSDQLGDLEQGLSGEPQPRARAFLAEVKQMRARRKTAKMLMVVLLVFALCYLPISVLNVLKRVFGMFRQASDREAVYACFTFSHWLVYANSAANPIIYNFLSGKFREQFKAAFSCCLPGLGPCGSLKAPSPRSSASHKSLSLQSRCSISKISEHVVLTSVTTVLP
Put plainly: Intracellular calcium measurements (FLIPR), orexin receptor antagonistic activity. The following applies: CHO cells expressing human orexin-1 receptor, 3 nM orexin-A, read-out: OX1 IC50. Type of assay: cell-based. The procedure: (§1) The orexin receptor antagonistic activity of the compounds of formula (I) is determined in accordance with one of the following experimental methods.
(§2) Intracellular Calcium Measurements:
(§3) Chinese hamster ovary (CHO) cells expressing the human orexin-1 receptor and the human orexin-2 receptor, respectively, are grown in culture medium (Ham F-12 with L-Glutamine) containing 300 μg/ml G418, 100 U/ml penicillin, 100 μg/ml streptomycin and 10% heat inactivated fetal calf serum (FCS). The cells are seeded at 20'000 cells/well into 384-well black clear bottom sterile plates (Greiner). The seeded plates are incubated overnight at 37° C. in 5% CO2.
(§4) Human orexin-A as an agonist is prepared as 1 mM stock solution in MeOH:water (1:1), diluted in HBSS containing 0.1% bovine serum albumin (BSA), NaHCO3:0.375 g/l and 20 mM HEPES for use in the assay at a final concentration of 3 nM.
(§5) Antagonists are prepared as 10 mM stock solution in DMSO, then diluted in 384-well plates, first in DMSO, then in HBSS containing 0.1% bovine serum albumin (BSA), NaHCO3: 0.375 g/l and 20 mM HEPES.
(§6) On the day of the assay, 50 μl of staining buffer (HBSS containing 1% FCS, 20 mM HEPES, NaHCO3: 0.375 g/l, 5 mM probenecid (Sigma) and 3 μM of the fluorescent calcium indicator fluo-4 AM (1 mM stock solution in DMSO, containing 10% pluronic) is added to each well.
(§7) The 384-well cell-plates are incubated for 50 min at 37° C. in 5% CO2 followed by equilibration at RT for 30-120 min before measurement.
(§8) Within the Fluorescent Imaging Plate Reader (FLIPR2 or FLIPR Tetra, Molecular Devices), antagonists are added to the plate in a volume of 10 μl/well, incubated for 10 min and finally 10 μl/well of agonist is added. Fluorescence is measured for each well at 1 second intervals, and the height of each fluorescence peak is compared to the height of the fluorescence peak induced by 3 nM orexin-A with vehicle in place of antagonist. For each antagonist, the IC50 value (the concentration of compound needed to inhibit 50% of the agonistic response) is determined. With the FLIPR Tetra, non-optimized and optimized conditions were used. Optimized conditions were achieved by adjustment of pipetting speed and cell splitting regime. The calculated IC50 values of the compounds may fluctuate depending on the daily cellular assay performance. Fluctuations of this kind are known to those skilled in the art.
In general terms: Calcium flux is commonly read through the fluorescence of an indicator in the cells.

The target in a further assay is T2, human orexin-2 receptor (Homo sapiens, UniProt O43614).
T2 construct: expressed in transfected cells; host or cells: Chinese hamster ovary (CHO) cells, G418 selection
T2 sequence (O43614 1-444): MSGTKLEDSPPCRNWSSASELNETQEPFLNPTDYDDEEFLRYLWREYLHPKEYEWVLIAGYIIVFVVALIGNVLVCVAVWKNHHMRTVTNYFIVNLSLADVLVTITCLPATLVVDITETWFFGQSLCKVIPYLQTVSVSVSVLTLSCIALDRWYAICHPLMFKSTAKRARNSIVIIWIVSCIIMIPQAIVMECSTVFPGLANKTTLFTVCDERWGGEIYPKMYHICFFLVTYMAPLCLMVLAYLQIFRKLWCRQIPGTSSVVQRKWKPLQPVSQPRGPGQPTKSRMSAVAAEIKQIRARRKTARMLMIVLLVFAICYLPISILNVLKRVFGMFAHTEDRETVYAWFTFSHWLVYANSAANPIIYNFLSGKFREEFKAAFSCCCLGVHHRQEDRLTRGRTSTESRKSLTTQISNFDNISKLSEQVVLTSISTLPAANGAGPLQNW
The description is as above. Type of assay: cell-based. The following applies: CHO cells expressing human orexin-2 receptor, 3 nM orexin-A, read-out: OX2 IC50. How it is done: as §1, §2, §3, §4, §5, §6, §7, §8

[1] abbreviates: FLIPR Tetra, optimized conditions.
[2] abbreviates: FLIPR Tetra, non-optimized conditions.

Take `Cc1cccc(-c2sc(C)nc2C(=O)N2C[C@@H]3C[C@@H]3[C@H]2CNC(=O)c2cccc3ccccc23)c1` [Example 52, Naphthalene-1-carboxylic acid[(1S,2S,5R)-3-(2-methyl-5-m-tolyl-thiazole-4-carbonyl)-3-aza-bicyclo[3.1.0]hex-2-ylmethyl]-amide]: the figures for the 50% inhibitory concentration (IC50) at human orexin-1 receptor (FLIPR2) and at human orexin-2 receptor (FLIPR2) were 155 nM and 228 nM, respectively.

Regarding `Cc1nc(C(=O)N2C[C@@H]3C[C@@H]3[C@H]2CNC(=O)c2cccc(Br)c2)c(-c2cccc(Cl)c2)s1` [Example 74, 3-Bromo-N-{(1S,2S,5R)-3-[5-(3-chloro-phenyl)-2-methyl-thiazole-4-carbonyl]-3-aza-bicyclo[3.1.0]hex-2-ylmethyl}-benzamide], the half-maximal inhibitory concentration (IC50) at human orexin-1 receptor (FLIPR2) is 84 nM; at human orexin-2 receptor (FLIPR2) it was 48 nM.

For the compound `Cc1cc(C)cc(C(=O)NC[C@@H]2[C@H]3C[C@H]3CN2C(=O)c2nc(C)sc2-c2cccc(C)c2)c1` [Example 147, 3,5-Dimethyl-N-[(1S,2S,5R)-3-(2-methyl-5-m-tolyl-thiazole-4-carbonyl)-3-aza-bicyclo[3.1.0]hex-2-ylmethyl]-benzamide], the values for the IC50 at human orexin-1 receptor (FLIPR2) and on human orexin-2 receptor (FLIPR2) were 324 nM and 26 nM, respectively.

On to `Cn1nc(C(=O)NC[C@@H]2[C@H]3C[C@H]3CN2C(=O)c2nc(N)sc2-c2cccc(F)c2)c2ccccc21` [Example 117, 1-Methyl-1H-indazole-3-carboxylic Acid{(1S,2S,5R)-3-[2-amino-5-(3-fluoro-phenyl)-thiazole-4-carbonyl]-3-aza-bicyclo[3.1.0]hex-2-ylmethyl}-amide], for which the IC50 came to 80 nM at human orexin-1 receptor (FLIPR2) and 8 nM at human orexin-2 receptor (FLIPR2).

Take `Cc1cccc(-c2sc(C)nc2C(=O)N2C[C@@H]3C[C@@H]3[C@H]2CNC(=O)c2c(C)noc2C)c1` [Example 51, 3,5-Dimethyl-isoxazole-4-carboxylic Acid[(1S,2S,5R)-3-(2-methyl-5-m-tolyl-thiazole-4-carbonyl)-3-aza-bicyclo[3.1.0]hex-2-ylmethyl]-amide]: the IC50 at human orexin-1 receptor (FLIPR2) worked out at 81 nM; at human orexin-2 receptor (FLIPR2), 41 nM.

As for `Cc1cccc(-c2sc(Br)nc2C(=O)N2C[C@@H]3C[C@@H]3[C@H]2CNC(=O)c2c(C)nc3sccn23)c1` [Example 29, 6-Methyl-imidazo[2,1-b]thiazole-5-carboxylic acid[(1S,2S,5R)-3-(2-bromo-5-m-tolyl-thiazole-4-carbonyl)-3-aza-bicyclo[3.1.0]hex-2-ylmethyl]-amide], the IC50 came out at 4 nM on human orexin-1 receptor (FLIPR2) and 27 nM at human orexin-2 receptor (FLIPR2).

For `Cc1cccc(-c2sc(C)nc2C(=O)N2C[C@@H]3C[C@@H]3[C@H]2CNC(=O)c2cc(Br)ccc2Cl)c1` [Example 148, 5-Bromo-2-chloro-N-[(1S,2S,5R)-3-(2-methyl-5-m-tolyl-thiazole-4-carbonyl)-3-aza-bicyclo[3.1.0]hex-2-ylmethyl]-benzamide], the concentration for half-maximal inhibition (IC50) is 1080 nM on human orexin-1 receptor (FLIPR2) and 102 nM on human orexin-2 receptor (FLIPR2).

On to `Cc1cccc(-c2sccc2C(=O)N2C[C@@H]3C[C@@H]3[C@H]2CNC(=O)c2cc3occc3n2C)c1` [Example 282, 4-Methyl-4H-furo[3,2-b]pyrrole-5-carboxylic acid [(1S,2S,5R)-3-(2-m-tolyl-thiophene-3-carbonyl)-3-aza-bicyclo[3.1.0]hex-2-ylmethyl]-amide], for which the figures for the IC50 on human orexin-1 receptor (setting [1]) and at human orexin-2 receptor (setting [1]) were 117 nM and 32 nM, respectively.

Regarding `Cc1nc(C(=O)N2C[C@@H]3C[C@@H]3[C@H]2CNC(=O)c2cccc3c2OC(C)(C)C3)c(-c2cccc(Cl)c2)s1` [Example 73, 2,2-Dimethyl-2,3-dihydro-benzofuran-7-carboxylic Acid{(1S,2S,5R)-3-[5-(3-chloro-phenyl)-2-methyl-thiazole-4-carbonyl]-3-aza-bicyclo[3.1.0]hex-2-ylmethyl}-amide], the IC50 on human orexin-1 receptor (FLIPR2) worked out at 21 nM; at human orexin-2 receptor (FLIPR2), 9 nM.

Regarding `Cc1cccc(-c2sc(C)nc2C(=O)N2C[C@@H]3C[C@@H]3[C@H]2CNC(=O)c2nccc3ccccc23)c1` [Example 54, Isoquinoline-1-carboxylic Acid[(1S,2S,5R)-3-(2-methyl-5-m-tolyl-thiazole-4-carbonyl)-3-aza-bicyclo[3.1.0]hex-2-ylmethyl]-amide], the half-maximal inhibitory concentration (IC50) stood at 26 nM on human orexin-1 receptor (FLIPR2) and 18 nM on human orexin-2 receptor (FLIPR2).

Turning to `Nc1nc(C(=O)N2C[C@@H]3C[C@@H]3[C@H]2CNC(=O)c2cnc3ccccn23)c(-c2cccc(F)c2)s1` [Example 118, Imidazo[1,2-a]pyridine-3-carboxylic Acid{(1S,2S,5R)-3-[2-amino-5-(3-fluoro-phenyl)-thiazole-4-carbonyl]-3-aza-bicyclo[3.1.0]hex-2-ylmethyl}-amide], the IC50 on human orexin-1 receptor (FLIPR2) was 225 nM; on human orexin-2 receptor (FLIPR2) it was 41 nM.

Consider `Cc1nc(C(=O)N2C[C@@H]3C[C@@H]3[C@H]2CNC(=O)c2cccc3c2CCO3)c(-c2cccc(C(F)(F)F)c2)s1` [Example 201, 2,3-Dihydro-benzofuran-4-carboxylic acid {(1S,2S,5R)-3-[2-methyl-5-(3-trifluoromethyl-phenyl)-thiazole-4-carbonyl]-3-aza-bicyclo[3.1.0]hex-2-ylmethyl}-amide], for which the IC50 came to 673 nM on human orexin-1 receptor (setting [2]) and 349 nM on human orexin-2 receptor (setting [2]).

In the case of `Cc1cccc(-c2sc(C)nc2C(=O)N2C[C@@H]3C[C@@H]3[C@H]2CNC(=O)c2cccc3c2OC(C)(C)C3)c1` [Example 43, 2,2-Dimethyl-2,3-dihydro-benzofuran-7-carboxylic acid[(1S,2S,5R)-3-(2-methyl-5-m-tolyl-thiazole-4-carbonyl)-3-aza-bicyclo[3.1.0]hex-2-ylmethyl]-amide], the IC50 on human orexin-1 receptor (FLIPR2) was found to be 26 nM; at human orexin-2 receptor (FLIPR2) it was 19 nM.

In the case of `Cc1nc2sccn2c1C(=O)NC[C@@H]1[C@H]2C[C@H]2CN1C(=O)c1ccccc1-c1ccccc1F` [Example 19, 6-Methyl-imidazo[2,1-b]thiazole-5-carboxylic acid[(1S,2S,5R)-3-(2′-fluoro-biphenyl-2-carbonyl)-3-aza-bicyclo[3.1.0]hex-2-ylmethyl]-amide], the results for the IC50 on human orexin-1 receptor (FLIPR2) and on human orexin-2 receptor (FLIPR2) were 22 nM and 174 nM, respectively.

In the case of `Cc1cccc(-c2sc(C)nc2C(=O)N2C[C@@H]3C[C@@H]3[C@H]2CNC(=O)c2cccc3nc(C)oc23)c1` [Example 256, 2-Methyl-benzoxazole-7-carboxylic acid [(1S,2S,5R)-3-(2-methyl-5-m-tolyl-thiazole-4-carbonyl)-3-aza-bicyclo[3.1.0]hex-2-ylmethyl]-amide], the IC50 on human orexin-1 receptor (setting [1]) was found to be 64 nM; on human orexin-2 receptor (setting [1]), 55 nM.

For the compound `Cc1cccc(-c2sc(C)nc2C(=O)N2C[C@@H]3C[C@@H]3[C@H]2CNC(=O)c2cc(F)cc3c2OCOC3)c1` [Example 42, 6-Fluoro-4H-benzo[1,3]dioxine-8-carboxylic Acid[(1S,2S,5R)-3-(2-methyl-5-m-tolyl-thiazole-4-carbonyl)-3-aza-bicyclo[3.1.0]hex-2-ylmethyl]-amide], the 50% inhibitory concentration (IC50) on human orexin-1 receptor (FLIPR2) is 49 nM; on human orexin-2 receptor (FLIPR2), 12 nM.

Broadly, the IC50 is the midpoint of a concentration-inhibition curve.
